In patent US10501518B2 (priority 2013, dated 2019):
Starred links: 1 amine or outer side, 2 acyl side, 3 side chain; linkers in the order of their positions; H or OH if unused. Non-standard residues stand in square brackets, D forms with d. Residues, ends and D or L forms follow the SMILES beside them. *: point of attachment. NH(1S,2S-2-CONH2-cPent) = NC(=O)[C@H]1CCC[C@@H]1N*; X12 = O=C([C@H]1CCC[C@@H]1N[*:1])[*:2]; X13 = O=C([C@H]1CNC[C@@H]1N[*:1])[*:2]; ACPC(1S,2S) = N[C@H]1CCC[C@@H]1C(=O)*; hArg = N=C(N)NCCCC[C@H](N)C(=O)O; Aib = CC(C)(N)C(=O)O

Experiments:
[1] = molecular target: T1, PTHR (Homo sapiens, UniProt Q03431); assay: cAMP induction potency, N-terminal modifications and cyclic constraints (Tables 9, 10, 13); type: cell-based; conditions: Table 9
T1 construct: expressed in transfected cells
T1 sequence (Q03431 27-593): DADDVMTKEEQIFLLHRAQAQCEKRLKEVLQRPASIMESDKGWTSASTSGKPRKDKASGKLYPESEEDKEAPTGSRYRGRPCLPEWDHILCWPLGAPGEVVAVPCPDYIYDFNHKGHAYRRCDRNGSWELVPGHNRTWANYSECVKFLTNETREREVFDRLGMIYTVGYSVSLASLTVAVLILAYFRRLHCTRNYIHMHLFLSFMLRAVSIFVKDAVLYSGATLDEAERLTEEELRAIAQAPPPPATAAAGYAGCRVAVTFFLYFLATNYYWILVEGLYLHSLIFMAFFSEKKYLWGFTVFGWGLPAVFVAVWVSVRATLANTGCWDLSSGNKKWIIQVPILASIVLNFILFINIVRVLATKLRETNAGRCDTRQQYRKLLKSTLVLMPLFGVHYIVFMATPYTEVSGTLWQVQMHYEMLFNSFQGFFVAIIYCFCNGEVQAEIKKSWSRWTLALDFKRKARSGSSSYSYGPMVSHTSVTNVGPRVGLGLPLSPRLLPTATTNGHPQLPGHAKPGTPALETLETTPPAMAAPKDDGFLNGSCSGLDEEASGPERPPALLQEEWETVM
Description: For cAMP dose-response assays, monolayers of confluent HEK 293 cells were pre-incubated with buffer containing d-luciferin (0.5 mM) in 96 well plates at room temperature until a stable baseline level of luminescence was established (30 min). Varying concentrations of agonist were then added, and the time course of luminescence response was recorded using a Perkin Elmer plate reader following α/β-peptide addition.

[2] = Calcemic response in mice after subcutaneous injection; type: in vivo; conditions: 20 nmol/kg
Description: Compound concentrations were determined by submitting plasma to a cAMP GloSensor assay, quantification of luminescence readout, and conversion to peptide concentration via standard curve. […] See also FIGS. 12A, 12B and 12C.
Mice (C57BL/6, male, age 9-12 weeks) were treated in accordance with the ethical guidelines adopted by Massachusetts General Hospital. […] Blood was withdrawn just prior to injection (t=0) or at times thereafter. Tail vein blood was collected and immediately used for analysis. Blood Ca^2+ concentration was measured with a Chiron Diagnostics model 634 Ca^2+/pH analyzer.

[3] = mouse, in vivo; cited from earlier work
[4] = Stability in simulated gastric fluid; type: in vitro ADME

CC[C@H](C)[C@H](NC(=O)[C@H](CCC(=O)O)NC(=O)[C@H](CO)NC(=O)[C@@H](NC(=O)[C@@H](N)CO)C(C)C)C(=O)N[C@@H](CCC(N)=O)C(=O)N[C@@H](CC(C)C)C(=O)N[C@@H](CCSC)C(=O)N[C@@H](Cc1c[nH]cn1)C(=O)N[C@@H](CC(N)=O)C(=O)N[C@@H](CC(C)C)C(=O)NCC(=O)N[C@@H](CCCCN)C(=O)N[C@H]1CCC[C@@H]1C(=O)N[C@@H](CC(C)C)C(=O)N[C@@H](CC(N)=O)C(=O)N[C@@H](CO)C(=O)N[C@H]1CCC[C@@H]1C(=O)N[C@@H](CCC(=O)O)C(=O)N[C@@H](CCCNC(=N)N)C(=O)N[C@H](C(=O)N[C@H]1CNC[C@@H]1C(=O)N[C@@H](Cc1c[nH]c2ccccc12)C(=O)N[C@@H](CC(C)C)C(=O)N[C@@H](CCCNC(=N)N)C(=O)N[C@H]1CNC[C@@H]1C(=O)N[C@@H](CCCCN)C(=O)N[C@@H](CC(C)C)C(=O)N[C@@H](CCC(N)=O)C(=O)N[C@H]1CCC[C@@H]1C(=O)N[C@H](C(=O)N[C@@H](Cc1c[nH]cn1)C(=O)N[C@@H](CC(N)=O)C(=O)N[C@H]1CCC[C@@H]1C(N)=O)C(C)C)C(C)C [FcycD6, SVSEIQLMHNLGKXLNSXERVZWLRZKLQXVHNX-NH2] (H-SVSEIQLMHNLGK[X12]LNS[X12]ERV[X13]WLR[X13]KLQ[X12]VHN-{NH(1S,2S-2-CONH2-cPent)}; N-terminus assumed)
Fold PTH [1]: 3.2 | EC50 ([1]; read-out: EC50, nM (cAMP induction potency)): 0.26 ± 0.05 nM | calcemic response (blood Ca^2+ concentration) [2]: very marked activity to increase calcium blood levels

CC[C@H](C)[C@H](NC(=O)[C@H](CCC(=O)O)NC(=O)[C@H](C)NC(=O)[C@@H](NC(=O)[C@H](C)N)C(C)C)C(=O)N[C@@H](CCC(N)=O)C(=O)N[C@@H](CC(C)C)C(=O)N[C@@H](CCSC)C(=O)N[C@@H](Cc1cnc[nH]1)C(=O)N[C@@H](CCC(N)=O)C(=O)N[C@@H](CCCCNC(=N)N)C(=O)N[C@@H](C)C(=O)N[C@@H](CCCCN)C(=O)N[C@@H](Cc1c[nH]c2ccccc12)C(=O)N[C@@H](CC(C)C)C(=O)N[C@@H](CC(N)=O)C(=O)N[C@@H](CO)C(=O)N[C@@H](CCSC)C(=O)N[C@@H](CCCNC(=N)N)C(=O)N[C@@H](CCCNC(=N)N)C(=O)N[C@H](C(=O)N[C@@H](CCC(=O)O)C(=O)N[C@@H](Cc1c[nH]c2ccccc12)C(=O)N[C@@H](CC(C)C)C(=O)N[C@@H](CCCNC(=N)N)C(=O)N[C@@H](CCCCN)C(=O)N[C@@H](CCCCN)C(=O)N[C@@H](CC(C)C)C(=O)N[C@@H](CCC(N)=O)C(=O)N[C@@H](CC(=O)O)C(=O)N[C@H](C(=O)N[C@@H](Cc1cnc[nH]1)C(=O)N[C@@H](CC(N)=O)C(=O)N[C@@H](Cc1ccccc1)C(N)=O)C(C)C)C(C)C [M-PTH(1-34)] (H-AVAEIQLMHQ[hArg]AKWLNSMRRVEWLRKKLQDVHNF-NH2)
bioavailability (previously shown) [3]: native-like bioavailability

CSCC[C@H](NC(=O)[C@H]1CCC[C@@H]1NC(=O)[C@H](CCC(N)=O)NC(=O)[C@H]1CCC[C@@H]1NC(=O)[C@H](CCC(=O)O)NC(=O)C(C)(C)NC(=O)[C@@H](NC(=O)[C@H]1CCC[C@@H]1N)C(C)C)C(=O)N[C@@H](Cc1cnc[nH]1)C(=O)N[C@@H](CCC(N)=O)C(=O)N[C@@H](CCCCNC(=N)N)C(=O)N[C@@H](C)C(=O)N[C@@H](CCCCN)C(=O)N[C@H]1CCC[C@@H]1C(=O)N[C@@H](CC(C)C)C(=O)N[C@@H](CC(N)=O)C(=O)N[C@@H](CO)C(=O)N[C@H]1CCC[C@@H]1C(=O)N[C@@H](CCCNC(=N)N)C(=O)N[C@@H](CCCNC(=N)N)C(=O)N[C@H](C(=O)N[C@H]1CNC[C@@H]1C(=O)N[C@@H](Cc1c[nH]c2ccccc12)C(=O)N[C@@H](CC(C)C)C(=O)N[C@@H](CCCNC(=N)N)C(=O)N[C@H]1CNC[C@@H]1C(=O)N[C@@H](CCCCN)C(=O)N[C@@H](CC(C)C)C(=O)N[C@@H](CCC(N)=O)C(=O)N[C@H]1CCC[C@@H]1C(=O)N[C@H](C(=O)N[C@@H](Cc1cnc[nH]1)C(=O)N[C@@H](CC(N)=O)C(=O)N[C@H]1CCC[C@@H]1C(N)=O)C(C)C)C(C)C [M-X1,5,7-FcycD6, XVUEXQXMHQ^hRAKXLNSXRRVZWLRZKLQXVHNX--NH2] ({ACPC(1S,2S)}-V[Aib]E[X12]Q[X12]MHQ[hArg]AK[X12]LNS[X12]RRV[X13]WLR[X13]KLQ[X12]VHN-{NH(1S,2S-2-CONH2-cPent)})
stability in simulated gastric fluid [4]: good stability
